Data as given in patent US9598440B2, “Inhibitors of IRAK4 activity” (MERCK SHARP & DOHME CORP., priority 2012, dated 2017).
pIC50: −log10 of the molar value.

target: IRAK4 (Homo sapiens (Human), UniProt Q9NWZ3); assay: Determination of IRAK4 kinase activity (IMAP fluorescence polarization, phosphorylation of fluorescent peptide substrate); assay type: biochemical; conditions: 0.5 nM GST tagged IRAK4, 100 nM peptide substrate RP7030, 100 μM ATP, 30 minutes at 25° C.
Summary of the method: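 GST-tagged IRAK4 (0.5 nM) phosphorylated 100 nM fluorescent peptide substrate with 100 µM ATP in Tris-HCl pH 7.2, 1 mM MgCl2, 1 mM DTT, 0.01% Tween 20 for 30 min at 25 °C. Phosphorylation read by IMAP nanoparticle binding as fluorescence polarization increase.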

IRAK4, sequence (Q9NWZ3 whole entry): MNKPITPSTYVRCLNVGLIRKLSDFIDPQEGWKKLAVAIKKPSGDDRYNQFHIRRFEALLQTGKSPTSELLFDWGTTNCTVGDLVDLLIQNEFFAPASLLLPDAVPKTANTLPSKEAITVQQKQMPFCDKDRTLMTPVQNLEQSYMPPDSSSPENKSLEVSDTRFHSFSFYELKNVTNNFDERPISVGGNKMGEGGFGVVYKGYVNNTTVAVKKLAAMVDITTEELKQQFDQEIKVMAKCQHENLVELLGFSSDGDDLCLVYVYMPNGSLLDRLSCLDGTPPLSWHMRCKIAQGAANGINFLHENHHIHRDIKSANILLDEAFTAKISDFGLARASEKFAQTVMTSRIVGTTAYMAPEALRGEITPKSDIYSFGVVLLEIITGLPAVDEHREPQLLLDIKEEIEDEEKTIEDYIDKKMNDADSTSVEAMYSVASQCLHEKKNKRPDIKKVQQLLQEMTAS

| pIC50 | SMILES |
| --- | --- |
| 8.05 | CO[C@@H]1[C@H](O)[C@@H](CO)C[C@H]1Nc1nc(Nc2cc(C)nc(C)c2)ncc1-c1nc2ccccc2s1 [Example 140, (1R,2S,3R,5R)-3-((5-(benzo[d]thiazol-2-yl)-2-((2,6-dimethylpyridin-4-yl)amino)pyrimidin-4-yl)amino)-5-(hydroxymethyl)-2-methoxycyclopentanol] |
| 7.48 | COc1cc(Nc2ncc(-c3ccc4ccccc4n3)c(N[C@@H]3C[C@H](CO)[C@@H](O)[C@H]3OC)n2)ccn1 [Example 141, (1R,2S,3R,5R)-5-(hydroxymethyl)-2-methoxy-3-((2-((2-methoxypyridin-4-yl)amino)-5-(quinolin-2-yl)pyrimidin-4-yl)amino)cyclopentanol] |
| 7.17 | CO[C@@H]1[C@H](O)[C@@H](CO)C[C@H]1Nc1nc(N)ncc1-c1nc2ccccc2s1 [Example 142, (1R,2S,3R,5R)-3-((2-amino-5-(benzo[d]thiazol-2-yl)pyrimidin-4-yl)amino)-5-(hydroxymethyl)-2-methoxycyclopentanol] |
| 7.02 | COC[C@H]1C[C@@H](Nc2nc(Nc3ccnc(OC)c3)ncc2-c2nc3ccccc3s2)[C@H](O)[C@@H]1O [Example 143, (1R,2S,3R,5R)-3-((5-(benzo[d]thiazol-2-yl)-2-((2-methoxypyridin-4-yl)amino)pyrimidin-4-yl)amino)-5-(methoxymethyl)cyclopentane-1,2-diol] |
| 8.52 | Cc1cc(Nc2ncc(-c3nc4ccccc4s3)c(N[C@@H]3C[C@H](CF)[C@@H](O)[C@H]3O)n2)cc(C)n1 [Example 144, (1R,2S,3R,5S)-3-((5-benzo[d]thiazol-2-yl)-2-((2,6-dimethylpyridin-4-yl)amino-pyrimidin-4-yl)amino)-5-(fluoromethyl)cyclopentane-1,2-diol] |
| 5.88 | Nc1ncc(-c2nc3ccccc3s2)c(N[C@@H]2C[C@H](CO)[C@@H](O)[C@@H]2F)n1 [Example 145, (1R,2R,3R,5R)-3-((2-amino-5-(benzo[d]thiazol-2-yl)pyrimidin-4-yl)amino)-2-fluoro-5-(hydroxymethyl)cyclopentanol] |
| 6.54 | C[C@H]1C[C@@H](Nc2nc(N)ncc2-c2nc3ccccc3s2)[C@H](O)[C@@H]1O [Example 146, (1R,2S,3R,5S)-3-((2-amino-5-(benzo[d]thiazol-2-yl)pyrimidin-4-yl)amino)-5-methylcyclopentane-1,2-diol] |
| 6.88 | COc1cc(Nc2ncc(-c3nc4ccccc4s3)c(N[C@@H]3C[C@H](C)[C@@H](O)[C@H]3O)n2)ccn1 [Example 147, (1R,2S,3R,5S)-3-((5-(benzo[d]thiazol-2-yl)-2-((2-methoxypyridin-4-yl)amino)pyrimidin-4-yl)amino)-5-methylcyclopentane-1,2-diol] |
| 8.68 | COC(=O)[C@H]1C[C@@H](Nc2nc(Nc3cc(C)nc(C)c3)ncc2-c2nc3ccccc3s2)[C@H](OC)[C@@H]1O [Example 148] |
| 8.66 | CO[C@@H]1[C@H](O)[C@@H](C(C)(C)O)C[C@H]1Nc1nc(Nc2cc(C)nc(C)c2)ncc1-c1nc2ccccc2s1 [Example 149, (1R,2S,3R,5S)-3-((5-(benzo[d]thiazol-2-yl)-2-((2,6-dimethylpyridin-4-yl)amino)pyrimidin-4-yl)amino)-5-(2-hydroxypropan-2-yl)-2-methoxycyclopentanol] |
| 4.80 | Cc1nc(Nc2ccncc2)cc(N[C@@H]2C[C@H](CO)[C@@H](O)[C@H]2O)c1-c1nc2ccccc2s1 [Example 150, (1R,2S,3R,5R)-3-((3-(benzo[d]thiazol-2-yl)-2-methyl-6-(pyridin-4-ylamino)pyridin-4-yl)amino)-5-(hydroxymethyl)cyclopentane-1,2-diol] |
| 5.94 | OC[C@H]1C[C@@H](Nc2cc(Nc3ccc(F)cc3)ncc2-c2nc3ccccc3s2)[C@H](O)[C@@H]1O [Example 151, (1R,2S,3R,5R)-3-((5-(benzo[d]thiazol-2-yl)-2-((4-fluorophenyl)amino)pyridin-4-yl)amino)-5-(hydroxymethyl)cyclopentane-1,2-diol] |
